# How the values were obtained:
# hTEAD4 = biological target: T1, hTEAD4 (Homo sapiens, UniProt Q15561); assay: Cellular thermal shift assay (CETSA) in HCT116 cell lysates; format: cell-based; conditions: 50 μM, 10 min, DMSO 49.8
# T1 construct: Target engagement in HCT116 cell lysates was proven by means of a cellular thermal shift assay; endogenous in cells; host or cells: HCT116 cell lysate
# Procedure: HCT116 cells were grown in Dulbecco’s modified Eagle’s medium (Sigma-Aldrich, #P04-03550) containing 10% fetal bovine serum, 1× NEAA (Sigma-Aldrich, # P08-32800) and 1 mM sodium pyruvate (Sigma-Aldrich, #S8636) until they reached 90% confluency. Cells were detached, transferred to two separate tubes, and washed three times with PBS. Then, 0.6 mL of PBS containing 0.04% NP-40 was added to each tube and cells were lysed by means of freeze and thaw. Lysates were centrifuged (Beckman Optima MAX-TL) at 100,000g, 4 °C for 25 min and protein concentration was determined using the DC Protein Assay Kit I (Bio-Rad, #5000111). Aliquots (1.5 mL) containing 1 mg/mL protein were stored at −80 °C until further usage.
# Compound 19 (2.75 μL 10 mM stock, 50 μM) or DMSO (2.75 μL) was added to 550 μL of HCT116 lysates (1 mg/mL), samples were mixed and incubated for 10 min at room temperature. Treated and nontreated lysates were divided into ten aliquots, each 50 μL in PCR tubes. The aliquots were individually heated at different temperatures (Eppendorf Mastercycler ep Gradient S). […] To 16 μL of each supernatant was added 4 μL of 5× loading buffer and incubated for 5 min at 95 °C, before samples were analyzed by immunoblotting. […]
# Images were analyzed with ImageJ (FUJI). […]
# mTEAD4 (nonacylated) = biological target: T2, mTEAD4 (nonacylated) (Mus musculus, UniProt Q62296); assay: 1H–15N HSQC NMR; format: binding; conditions: 0.5 mM compound, versus DMSO
# T2 construct: made in house
# Procedure: The ^13C/^15N-labeled mTEAD4 was prepared following a protocol established earlier,[45] and the protein was deacylated as described above for hTEAD4. ^1H–^15N HSQC spectra in the presence of DMSO or the test compound (0.5 mM) were collected at 37 °C on a Bruker 600 MHz magnet equipped with a cryoprobe in 20 mM HEPES, pH 7.3 buffer containing 150 mM NaCl and 1 mM DTT. The spectra were processed and overlaid.
# hTEAD4 (nonacylated) = biological target: T3, hTEAD4 (nonacylated) (Homo sapiens, UniProt Q15561); assay: Time-dependent inhibition, thiol conjugation assay; format: binding
# T3 construct: N-terminal His6-tagged hTEAD4^217–434 was subcloned; made in house; host or cells: Escherichia coli BL21-CodonPlus (DE3)-RIPL
# Procedure: To serially diluted solutions of the tested compounds in 5 μL of assay buffer [HEPES (25 mM) and NaCl (150 mM) pH 6.5], freshly prepared 5 μL of 0.45 μM protein solution was added and incubated at room temperature for 10 min, followed by addition of 5 μL of 0.45 μM CPM solution, giving a 15 μL final assay volume, 150 nM protein, and 150 nM CPM. The assay plate was shaken at room temperature for 1 h before measuring the fluorescence (Ex/Em: 380/470 nm). Compound 19 was used as an internal standard to determine 100% inhibition.
# TDI of hTEAD4 (nonacylated) by compound 19 was monitored in FP (central pocket binding) and thiol conjugation assays at 5–7 different concentrations (0.15–40 μM) following 1, 2, 4, and 24 h incubation at 4 °C (mean ± SD; n = 2). By fitting the percent of inhibition versus preincubation time at different concentrations, kobs was calculated. Next, kobs was plotted against concentration and was further fitted to a nonlinear regression model to determine the kinetic parameters of covalent inhibition of hTEAD4, where plateau is showing kinact (min^–1) and t1/2 is Ki (μM).
# [1] = biological target: T4, hTEAD4 (acylated) with YAP (Homo sapiens, UniProt Q15561); assay: FP-based competitive TEAD–YAP interaction assay (FITC-hYAP50–100); format: binding
# T4 construct: N-terminal His6-tagged hTEAD4^217–434 was subcloned; made in house; host or cells: Escherichia coli BL21-CodonPlus (DE3)-RIPL
# Procedure: (§1) All the TEAD–YAP binding experiments were performed in phosphate-buffered saline (PBS) (pH 7.5).
# (§2) To serially diluted solution of the tested compounds in 5 μL of PBS, freshly prepared 5 μL of protein solution was added and incubated at room temperature for 10 min followed by addition of 5 μL of FAM-YAP^50–100 solution. The assay plate was shaken at room temperature for 1 h before measuring the FP (Ex/Em: 485/535 nm). Final protein and FAM concentrations are as follows (FAM/protein): hTEAD4 (nonacylated): 2 nM/5 nM, hTEAD4 (acylated): 3 nM/15 nM, mTEAD4_Cys360Ser: 10 nM/50 nM, and mTEAD4_Cys360Ala: 10 nM/50 nM.
# [2] = biological target: T5, mTEAD4 Cys360Ala with YAP (Mus musculus, UniProt Q62296, C360A); assay: as above; format: binding
# T5 construct: N-terminal His6- and MBP-tagged mTEAD4^209–427 with Cys360Ala mutation; made in house; host or cells: E. coli BL21-CodonPlus (DE3)-RIPL
# Procedure: as §1, §2
# [3] = biological target: T6, mTEAD4 Cys360Ser with YAP (Mus musculus, UniProt Q62296, C360S); assay: as above; format: binding
# T6 construct: His (N); made in house
# Procedure: as §1, §2
# T3 sequence (Q15561 217-434): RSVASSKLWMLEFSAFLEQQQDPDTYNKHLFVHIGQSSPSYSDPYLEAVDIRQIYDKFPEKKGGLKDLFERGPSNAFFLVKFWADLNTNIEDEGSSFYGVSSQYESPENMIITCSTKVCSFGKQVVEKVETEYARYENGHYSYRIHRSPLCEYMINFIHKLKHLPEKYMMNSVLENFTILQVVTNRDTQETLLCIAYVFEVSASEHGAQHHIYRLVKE
# T2 sequence (Q62296 210-427 limits assumed): as the sequence (Q15561 217-434) above, with V3I, Q19R, G35S, A48T, D67E, E91D, S96A, S142L counted along it
# T1 sequence (Q15561 whole entry): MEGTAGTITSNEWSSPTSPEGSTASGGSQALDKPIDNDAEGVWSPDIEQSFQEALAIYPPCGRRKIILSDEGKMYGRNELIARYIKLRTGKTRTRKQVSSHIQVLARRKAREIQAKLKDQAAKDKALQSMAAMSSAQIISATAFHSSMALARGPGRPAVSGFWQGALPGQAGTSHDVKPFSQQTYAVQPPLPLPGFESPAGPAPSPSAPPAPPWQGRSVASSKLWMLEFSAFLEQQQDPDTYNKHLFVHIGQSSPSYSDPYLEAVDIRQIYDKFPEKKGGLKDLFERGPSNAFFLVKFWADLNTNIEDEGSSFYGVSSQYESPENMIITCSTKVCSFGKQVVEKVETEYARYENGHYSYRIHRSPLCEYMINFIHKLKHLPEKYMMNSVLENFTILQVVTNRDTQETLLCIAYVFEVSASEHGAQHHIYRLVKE
# T6 sequence (Q62296 210-427 C360S limits assumed): as the sequence (Q15561 217-434) above, with V3I, Q19R, G35S, A48T, D67E, E91D, S96A, S142L, C151S counted along it
# T4 sequence (Q15561 217-434): as the sequence (Q15561 217-434) above
# T5 sequence (Q62296 209-427 C360A): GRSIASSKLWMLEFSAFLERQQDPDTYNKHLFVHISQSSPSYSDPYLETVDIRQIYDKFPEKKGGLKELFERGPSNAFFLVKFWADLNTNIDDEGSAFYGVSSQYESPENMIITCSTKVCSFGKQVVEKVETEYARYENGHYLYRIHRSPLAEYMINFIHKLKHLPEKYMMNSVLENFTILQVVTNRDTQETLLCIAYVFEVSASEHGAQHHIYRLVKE
compound,measurement,setting,value
"O=c1cc(CO)oc(C(Nc2ccccc2)c2ccccc2)c1O (stereo not shown) [Compound 19, 3-Hydroxy-6-(hydroxymethyl)-2-(phenyl(phenylamino)methyl)-4H-pyran-4-one]",melting temperature of hTEAD4 (CETSA),hTEAD4,53.1 °C
same,effect on 1H–15N HSQC spectrum,mTEAD4 (nonacylated),induced line broadening of several residues
same,kinact,hTEAD4 (nonacylated); supplementary CSV,0.000333 s⁻¹
same,kinact/KI,hTEAD4 (nonacylated); thiol conjugation assay,138 M⁻¹ s⁻¹
same,inhibition of the interaction of YAP with TEAD,[1],did not inhibit
same,inhibition of the interaction of YAP with TEAD,[2],did not inhibit
same,inhibition of the interaction of YAP with TEAD,[3],did not inhibit

# — paper PMC7586386, “Discovery of Covalent Inhibitors Targeting the Transcriptional Enhanced Associate Domain Central Pocket” (Journal of Medicinal Chemistry, 2020)
